Where two headings read alike, the source gives them in different places.
Assays:
HMG-CoA reductase = biological target: T1, HMG-CoA reductase (Rattus norvegicus, UniProt P51639); test: Test A. In Vitro Microsomal Assay of HMG-CoA Reductase Inhibition; type: biochemical, rat (male Sprague-Dawley)
T1 construct: In the assay the microsomes are the source of the HMG-CoA reductase enzyme; from tissue; host or cells: liver microsomes of male Sprague-Dawley rats
T1 sequence (P51639 1-887): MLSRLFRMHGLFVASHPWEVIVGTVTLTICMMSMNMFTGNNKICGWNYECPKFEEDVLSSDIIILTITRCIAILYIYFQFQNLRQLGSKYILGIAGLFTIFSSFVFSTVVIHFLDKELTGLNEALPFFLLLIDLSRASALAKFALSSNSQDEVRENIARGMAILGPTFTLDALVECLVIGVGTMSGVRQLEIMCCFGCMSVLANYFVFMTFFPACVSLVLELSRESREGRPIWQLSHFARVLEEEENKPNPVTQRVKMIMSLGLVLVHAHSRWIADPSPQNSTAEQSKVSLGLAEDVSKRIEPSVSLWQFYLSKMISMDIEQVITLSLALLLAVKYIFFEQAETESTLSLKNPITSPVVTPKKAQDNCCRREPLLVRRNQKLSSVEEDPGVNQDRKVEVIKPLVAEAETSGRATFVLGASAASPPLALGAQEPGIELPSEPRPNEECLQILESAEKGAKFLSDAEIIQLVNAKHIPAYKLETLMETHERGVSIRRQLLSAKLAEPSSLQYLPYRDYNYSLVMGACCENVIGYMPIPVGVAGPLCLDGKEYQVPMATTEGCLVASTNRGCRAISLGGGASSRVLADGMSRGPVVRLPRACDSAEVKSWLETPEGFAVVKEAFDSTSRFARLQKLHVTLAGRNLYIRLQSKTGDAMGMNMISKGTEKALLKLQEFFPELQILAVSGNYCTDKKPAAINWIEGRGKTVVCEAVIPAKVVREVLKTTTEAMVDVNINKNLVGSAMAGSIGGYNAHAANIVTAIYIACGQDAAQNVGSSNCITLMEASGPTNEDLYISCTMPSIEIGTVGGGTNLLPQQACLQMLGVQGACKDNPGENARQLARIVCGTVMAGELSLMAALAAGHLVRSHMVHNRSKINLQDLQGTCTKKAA
Method: The compounds of Formula I and the pharmaceutically acceptable acid addition salts thereof are competitive inhibitors of 3-hydroxy-3-methylglutaryl coenzyme A (HMG-CoA) reductase, the rate limiting enzyme in cholesterol biosynthesis, and, therefore, they are inhibitors of cholesterol biosynthesis.
Test A. In Vitro Microsomal Assay of HMG--CoA Reductase Inhibition:
200 μl. aliquots (1.08-1.50 mg./ml.) of rat liver microsomal suspensions, freshly prepared from male SpragueDawley rats (150-225 g. body weight), in Buffer A with 10 mmol. dithiothreitol are incubated with 10 μl. of a solution of the test substance in dimethylacetamide and assayed for HMG--CoA reductase activity as described in Ackerman et al., J. Lipid Res. 18, 408-413 (1977), the concentration of the test substance in the assay system being 0.0001-2,000 μmolar. In the assay the microsomes are the source of the HMG-CoA reductase enzyme which catalyzes the reduction of HMG-CoA to mevalonate. The assay employs a chloroform extraction to separate the product, [^14 C]mevalonolactone, formed by the HMG-CoA reductase reduction of the substrate, [^14 C]HMG-CoA. [^3 H]mevalonolactone is added as an internal reference. Inhibition of HMG-CoA reductase is calculated from the decrease in specific activity ([^14 C/^3 H]mevalonate) of test groups compared to controls.
The IC50 is the concentration of the test substance in the assay system calculated or observed to produce a 50% inhibition of HMG-CoA reductase activity.

[1] = test system: 3β-hydroxysterol synthesis (cholesterol biosynthesis); test: Test B. In Vivo Cholesterol Biosynthesis Inhibition Test; parameters: species or system rat (male Wistar Royal Hart); details: Rattus norvegicus, read-out: ED50 in Test B (dose producing 50% inhibition of 3β-hydroxysterol synthesis)
Method: Test B. In Vivo Cholesterol Biosynthesis Inhibition Test: In vivo studies utilize male Wistar Royal Hart rats weighing 150±20 g. which have been kept for 7-10 days on an altered light cycle (6:30 A.M. - 6:30 P.M. dark) housed two per cage and fed powdered Purina Rat Chow and water ad libitum. Three hours before the diurnal maximum of cholesterol synthesis at mid-dark, the rats are administered orally the test substance (e.g., 0.001-200 mg./kg. body weight) dissolved or as a suspension in 0.5% carboxymethylcellulose in a volume of 1 ml./100 g. body weight. Controls receive vehicle alone. One hour after receiving the test substance (or the vehicle alone), the rats are injected intraperitoneally with about 25 μCi/100 g. body weight of sodium [1-^14 C]acetate 1-3 mCi/mmol. Two hours after mid-dark, blood samples are obtained under sodium hexobarbitol anesthesia, and the serum is separated by centrifugation. […] The [^14 C]digitonides are then counted by liquid scintillation spectrometry. After correcting for efficiencies, the results are calculated in nCi (nanocuries) of 3β-hydroxysterol formed per 100 ml. of serum.

[2] = rat liver microsomes, [14C]HMG-CoA substrate, test substance in dimethylacetamide, read-out: IC50 in Test A (50% inhibition of HMG-CoA reductase activity)
[3] = oral, single dose, male rats, [1-14C]acetate i.p. 1 h after dose, serum 3β-hydroxysterols

Row | SMILES | IC50 (HMG-CoA reductase; [2]) | ED50 [1, 3] | IC50 (HMG-CoA reductase) | ED50 ([1]; po, 1 h)
1 | CC(C)c1nc(-c2ccccc2)n(-c2ccc(F)cc2)c1/C=C/[C@@H](O)C[C@@H](O)CC(=O)O (relative stereo) [Example 2, Sodium (±)-erythro-(E)-3,5-dihydroxy-7-[1'-(4"-fluorophenyl)-4'-(1"-methylethyl)-2'-phenyl-1H-imidazol-5'-yl]hept-6-enoate] | 2.6 nM | 0.025 mg/kg |  | 
2 | CC[C@H](C)C(=O)O[C@H]1CCC=C2C=C[C@H](C)[C@H](CC[C@@H]3C[C@@H](O)CC(=O)O3)[C@H]21 [Compactin, reference compound] | 1010 nM | 3.5 mg/kg |  | 
3 | CCC(C)C(=O)OC1CC(C)C=C2C=CC(C)C(CCC3CC(O)CC(=O)O3)C21 (stereo not shown) [Mevinolin, reference compound] |  |  | 140 nM | 0.38 mg/kg

More lines, main results first:

Row | IC50 (HMG-CoA reductase; [2]) | SMILES | ED50 [1, 3] | IC50 (HMG-CoA reductase) | ED50 ([1]; po, 1 h)
4 | 36 nM | CC(C)c1nc(-c2ccccc2)n(-c2ccccc2)c1/C=C/[C@@H](O)C[C@@H](O)CC(=O)O (relative stereo) [Example 10] | 0.028 mg/kg |  | 
5 | 2 nM | CC(C)c1nc(-c2ccccc2)n(-c2ccc(F)cc2)c1/C=C/[C@@H](O)C[C@@H](O)CC(=O)O [Example 2A, Sodium (3R,5S)-(E)-3,5-dihydroxy-7-[1'-(4"-fluorophenyl)-4'-(1"-methylethyl)-2'-phenyl-1H-imidazol-5'-yl]hept-6-enoate] | 0.02 mg/kg |  | 

— US4808607A, “Imidazole analogs of mevalonolactone and derivatives thereof for use in inhibiting cholesterol biosynthesis and lowering blood cholesterol level” (Sandoz Pharm. Corp., priority 1987, dated 1989)
